US20250098679A1, “HERBICIDAL PYRIDONE DERIVATIVES” (SYNGENTA CROP PROTECTION AG, priority 2021, published 2025)

Key:
Format in all cases: in vivo
Conditions in all cases: evaluated after 13 days
[1] = tested on: Echinochloa crus-galli (ECHCG); experiment: Pre-emergence Test, Echinochloa crus-galli (ECHCG)
[2] = tested on: Amaranthus palmeri (AMAPA); experiment: Post-emergence Test, Amaranthus palmeri (AMAPA); set-up: key: 5=81-100%, 4=61-80%, 3=41-60%, 2=21-40%, 1=0-20% damage
Outline: (§1)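 Scores are percentage plant damage on a 1–5 scale (1=0-20%, 2=21-40%, 3=41-60%, 4=61-80%, 5=81-100%), read 13 days after treatment. Pots received a spray at 1000 g/ha unless otherwise stated, formulated in acetone/water (50:50) containing 0.5% Tween 20.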

[3] = tested on: Ipomoea hederacea (IPOHE); experiment: Pre-emergence Test, Ipomoea hederacea (IPOHE)
[4] = tested on: Amaranthus retoflexus (AMARE); experiment: Pre-emergence Test, Amaranthus retoflexus (AMARE)
[5] = tested on: Zea mays (ZEAMX); experiment: Pre-emergence Test, Zea mays (ZEAMX)
[6] = tested on: Ipomoea hederacea (IPOHE); experiment: Post-emergence Test, Ipomoea hederacea (IPOHE); set-up: key to percentage damage caused to the plant, IPOHE (five-point scale): 5=81-100%, 4=61-80%, 3=41-60%, 2=21-40%, 1=0-20% damage
Outline: as §1

[7] = tested on: Amaranthus palmeri (AMAPA); experiment: Pre-emergence Test, Amaranthus palmeri (AMAPA)
[8] = tested on: Echinochloa crus-galli (ECHCG); experiment: Post-emergence Test, Echinochloa crus-galli (ECHCG); set-up: key to percentage damage caused to the plant, ECHCG (five-point scale): 5=81-100%, 4=61-80%, 3=41-60%, 2=21-40%, 1=0-20% damage
Outline: as §1

[9] = tested on: Setaria faberi (SETFA); experiment: Post-emergence Test, Setaria faberi (SETFA); set-up: key to percentage damage caused to the plant, SETFA (five-point scale): 5=81-100%, 4=61-80%, 3=41-60%, 2=21-40%, 1=0-20% damage
Outline: as §1

[10] = tested on: Zea mays (ZEAMX); experiment: Post-emergence Test, Zea mays (ZEAMX); set-up: key to percentage damage caused to the plant, ZEAMX (five-point scale): 5=81-100%, 4=61-80%, 3=41-60%, 2=21-40%, 1=0-20% damage
Outline: as §1

[11] = tested on: Amaranthus retoflexus (AMARE); experiment: Post-emergence Test, Amaranthus retoflexus (AMARE); set-up: key to percentage damage caused to the plant, AMARE (five-point scale): 5=81-100%, 4=61-80%, 3=41-60%, 2=21-40%, 1=0-20% damage
Outline: as §1

[12] = tested on: Setaria faberi (SETFA); experiment: Pre-emergence Test, Setaria faberi (SETFA)

SMILES	Pre-emergence Test ECHCG, percentage damage caused to the plant (five-point scale) ([1]; 250 g/Ha (*))	Pre-emergence Test ECHCG, percentage damage caused to the plant (five-point scale) ([1]; 1000 g/ha)	percentage damage caused to the plant, AMAPA (five-point scale) ([2]; 250 g/Ha)	percentage damage caused to the plant, AMAPA (five-point scale) ([2]; 1000 g/ha)	Pre-emergence Test IPOHE, percentage damage caused to the plant (five-point scale) ([3]; 250 g/Ha (*))	Pre-emergence Test IPOHE, percentage damage caused to the plant (five-point scale) ([3]; 1000 g/ha)	Pre-emergence Test AMARE, percentage damage caused to the plant (five-point scale) ([4]; 1000 g/ha)	Pre-emergence Test ZEAMX, percentage damage caused to the plant (five-point scale) ([5]; 1000 g/ha)	percentage damage caused to the plant, IPOHE (five-point scale) ([6]; 250 g/Ha)	percentage damage caused to the plant, IPOHE (five-point scale) ([6]; 1000 g/ha)	Pre-emergence Test AMAPA, percentage damage caused to the plant (five-point scale) ([7]; 1000 g/ha)	percentage damage caused to the plant, ECHCG (five-point scale) ([8]; 250 g/Ha)	percentage damage caused to the plant, ECHCG (five-point scale) ([8]; 1000 g/ha)	percentage damage caused to the plant, SETFA (five-point scale) ([9]; 250 g/Ha)	percentage damage caused to the plant, SETFA (five-point scale) ([9]; 1000 g/ha)	percentage damage caused to the plant, ZEAMX (five-point scale) ([10]; 250 g/Ha)	percentage damage caused to the plant, ZEAMX (five-point scale) ([10]; 1000 g/ha)	percentage damage caused to the plant, AMARE (five-point scale) ([11]; 250 g/Ha)	percentage damage caused to the plant, AMARE (five-point scale) ([11]; 1000 g/ha)	Pre-emergence Test SETFA, percentage damage caused to the plant (five-point scale) ([12]; 1000 g/ha)	also measured
CCn1c(Cn2cc3c(n2)COC3)cc(=O)c(C(=O)O)c1-c1ccc(Cl)c(Cl)c1 [Compound 92, 2-(3,4-dichlorophenyl)-6-(4,6-dihydrofuro[3,4-c]pyrazol-2-ylmethyl)-1-ethyl-4-oxo-pyridine-3-carboxylic acid]	3 (3=41-60%)	4 (4=61-80%)	2 (2=21-40%)	2 (2=21-40%)	3 (3=41-60%)	2 (2=21-40%)	0	0	3 (3=41-60%)	3 (3=41-60%)	2 (2=21-40%)	3 (3=41-60%)	4 (4=61-80%)	3 (3=41-60%)	3 (3=41-60%)	2 (2=21-40%)	2 (2=21-40%)	2 (2=21-40%)	2 (2=21-40%)	4 (4=61-80%)	Pre-emergence Test AMARE, percentage damage caused to the plant (five-point scale) ([4]; 250 g/Ha (*)): 0; Pre-emergence Test ZEAMX, percentage damage caused to the plant (five-point scale) ([5]; 250 g/Ha (*)): 0; Pre-emergence Test AMAPA, percentage damage caused to the plant (five-point scale) ([7]; 250 g/Ha (*)): 1 (1=0-20%); Pre-emergence Test SETFA, percentage damage caused to the plant (five-point scale) ([12]; 250 g/Ha (*)): 3 (3=41-60%)
CCCOc1ccn(Cc2cc(=O)c(C(=O)O)c(-c3ccc(Cl)c(Cl)c3)n2CC)n1 [Compound 160, 2-(3,4-dichlorophenyl)-1-ethyl-4-oxo-6-[(3-propoxypyrazol-1-yl)methyl]pyridine-3-carboxylic acid]	2 (2=21-40%)	5 (5=81-100%)	0	1 (1=0-20%)	2 (2=21-40%)	2 (2=21-40%)	1 (1=0-20%)	3 (3=41-60%)	3 (3=41-60%)	3 (3=41-60%)	0	2 (2=21-40%)	4 (4=61-80%)	2 (2=21-40%)	4 (4=61-80%)	1 (1=0-20%)	4 (4=61-80%)	0	1 (1=0-20%)	5 (5=81-100%)	Pre-emergence Test AMARE, percentage damage caused to the plant (five-point scale) ([4]; 250 g/Ha (*)): 0; Pre-emergence Test ZEAMX, percentage damage caused to the plant (five-point scale) ([5]; 250 g/Ha (*)): 0; Pre-emergence Test AMAPA, percentage damage caused to the plant (five-point scale) ([7]; 250 g/Ha (*)): 0; Pre-emergence Test SETFA, percentage damage caused to the plant (five-point scale) ([12]; 250 g/Ha (*)): 2 (2=21-40%)
Cn1c(Cn2ccc(Cl)n2)cc(=O)c(C(=O)O)c1-c1ccc(Cl)c(Cl)c1 [Compound 34, 6-[(3-chloropyrazol-1-yl)methyl]-2-(3,4-dichlorophenyl)-1-methyl-4-oxo-pyridine-3-carboxylic acid]		5 (5=81-100%)	1 (1=0-20%)	3 (3=41-60%)		0	0	0	4 (4=61-80%)	4 (4=61-80%)	1 (1=0-20%)	2 (2=21-40%)	4 (4=61-80%)	3 (3=41-60%)	4 (4=61-80%)	1 (1=0-20%)	2 (2=21-40%)	1 (1=0-20%)	1 (1=0-20%)	5 (5=81-100%)	
